Test results reported in US20180353398A1, “HAIR CARE REGIMEN USING NA AEROSOL FOAM CONCENTRATED CONDITIONER” (The Procter & Gamble Company, priority 2015, published 2018).
Where a name gives a salt, the structure may show the parent alone.

assay: Kinematic viscosity of shampoo base formulation with viscosity reducing agent (calibrated viscometers); format: physicochemical; conditions: lowest of 2-8% agent in base formulation, 40° C.
From the text: Now referring to Tables 11 and 12, the base formulations were made by mixing 1.6% perfume, 24% linear sodium undecyl sulfate (CAS# 1072-24-8) active, 6% lauramidopropyl betaine (CAS# 4292-10-8) active and 60.4% deionized water which leaves 8% unfilled for the addition of a viscosity reducing agent (the balance being filled in by distilled water). For all compositions, the surfactant, water and additives including viscosity reducing agents were expected to be in a single phase.
The agents from Tables 11 and 12 were added to the base formulation at a percentage of 2%, 4%, 6%, and 8% into the above surfactant solution. The subsequent formulations were vortexed and put into oven at 60° C. overnight to form homogeneous solution. The viscosities of the formulations were measured with calibrated viscometers (Size 200/350/450) from Cannon Instrument Company (2139 High Tech Road, State College, Pa., USA, 16803).
After the equilibration, the formulations were drawn to reach the starting mark with a rubber suction bulb and the flow time between the starting mark and end mark was recorded for calculation. Each formulation was measured three times to calculate average and standard deviation. Between samples, viscometer was cleaned with water and acetone to rinse off residual.
Viscosity values in Table 11 and Table 12 were calculated based on the equation:
Viscosity (mm^2/s. (cSt))=Time (s)*Constant (mm^2/s^2. (cSt/s))
The time in the above equation is the flow time recorded in the experiment and the constant numbers for each calibrated viscometer were obtained from the manuals.

First: CC(C)CC=C(C=O)C(C)C [2-Isopropyl-5-methyl-2-hexenal]
Second: C=CC(C)(CCC=C(C)C)OC(=O)C(C)C (stereo not shown) [Linalyl Iso Butyrate]
The “Lowest viscosity achieved (cSt)” value of the first is higher: 332 cSt for the first, 38 cSt for the second.

First: CCCCCC(=O)OCC(C)C [Isobutyl Hexanoate]
Second: CCCCCCCCCCCCCC(=O)OC(C)C [Iso Propyl Myristate]
The “Lowest viscosity achieved (cSt)” value of the first is higher: 109 cSt for the first, 30 cSt for the second.

Going from `CCCCCC1(C)CCC(C)(C)C1=O` (stereo not shown) [Veloutone] to `CCCCCCC1C(=O)CCC1C(=O)OC` (stereo not shown) [Dihyro Iso Jasmonate], the “Lowest viscosity achieved (cSt)” value rises from 47 cSt to 119 cSt.

Compared with `CCC(=O)OC1CC2CC1C1CC=CC21` (stereo not shown) [Cyclaprop], `CCC(=O)O[C@@H]1C[C@H]2CC[C@]1(C)C2(C)C` (racemic) [Iso Bornyl Propionate] is higher in “Lowest viscosity achieved (cSt)” value: 404 cSt for the first, 463 cSt for the second.

Compared with `C=C(C)[C@H]1CC=C(C)CC1` [Limonene], `COC(C)(C)C1CC=C(C)CC1` (stereo not shown) [Orange Flower Ether] is higher in “Lowest viscosity achieved (cSt)” value: 86 cSt for the first, 419 cSt for the second.

First: CC12CCC(CC1)C(C)(C)O2 [Eucalyptol]
Second: CC12CCC(CC1=O)C2(C)C (stereo not shown) [Camphor Gum]
The “Lowest viscosity achieved (cSt)” value of the first is higher: 203 cSt for the first, 127 cSt for the second.

First: CC(C)CCOC(=O)c1ccccc1O [Isoamyl Salicylate]
Second: CC(C)COC(=O)c1ccccc1O [Iso Butyl Salicylate]
The “Lowest viscosity achieved (cSt)” value of the first is lower: 193 cSt for the first, 409 cSt for the second.

First: CC(=O)CCc1ccc(O)cc1 [Raspberry Ketone]
Second: CCCCOC(=O)c1ccccc1O [Butyl Salicylate]
The “Lowest viscosity achieved (cSt)” value of the first is lower: 33 cSt for the first, 368 cSt for the second.

Compared with `CC(=O)OCCC(C)CCC=C(C)C` (stereo not shown) [Citronellyl Acetate], `CC(=O)OCCC(C)CCCC(C)C` (stereo not shown) [3,7-Dimethyloctyl Acetate] is higher in “Lowest viscosity achieved (cSt)” value: 363 cSt for the first, 446 cSt for the second.

Compared with `C=C(C)[C@H]1CC=C(C)CC1` [Dipentene], `CC1=CC=C(C(C)C)CC1` [alpha-Terpinene] is higher in “Lowest viscosity achieved (cSt)” value: 35 cSt for the first, 42 cSt for the second.

Compared with `CCCCCCCC(OC)OC` [1,1-Dimethoxyoctane], `CCCCCCCCCCCCCCCC` [Hexadecane] is lower in “Lowest viscosity achieved (cSt)” value: 308 cSt for the first, 18 cSt for the second.

First: CCO [Ethanol]
Second: CCC(CC(C)CC)=NO (stereo not shown) [5-Methyl-3-Heptanone Oxime]
The “Lowest viscosity achieved (cSt)” value of the first is lower: 29 cSt for the first, 246 cSt for the second.

Compared with `CCOC(=O)CC(O)(CC(=O)OCC)C(=O)OCC` [Triethyl Citrate], `CC(C)=CCC/C(C)=C/COC(=O)Cc1ccccc1` [Geranyl Phenyl Acetate] is lower in “Lowest viscosity achieved (cSt)” value: 41 cSt for the first, 34 cSt for the second.

First: CC(CC=O)CCCC(C)(C)O (stereo not shown) [Hydroxycitronellal]
Second: CC1=CCC(C(C)C)=CC1 [gamma-Terpinene]
The “Lowest viscosity achieved (cSt)” value of the first is higher: 34 cSt for the first, 32 cSt for the second.
